Assay results published in the Bradley open melting point set (2014).
Counter-ions that a name gives are not always drawn.

First: CC(=O)c1ccc2ccccc2c1 [2-acetylnaphthalene]
Second: CC(=O)Oc1cccc2ccccc12 [1-naphthyl acetate]
The melting point of the first is higher: 54 °C for the first, 45 °C for the second.

Going from `O=C(Oc1ccccc1)c1ccccc1` [phenyl benzoate] to `O=C(c1ccccc1)C(O)c1ccccc1` (configuration not stated) [benzoin], the melting point rises from 69 °C to 134 °C.

First: CCCCC(CC)COP(=O)(OCC(CC)CCCC)OCC(CC)CCCC (configuration not stated) [Tris(2-ethylhexyl) phosphate]
Second: CCCCCCCCCCCCCC(=O)CCCCCCCCCCCCC [14-heptacosanone]
The melting point of the first is lower: -70 °C for the first, 78 °C for the second.

Compared with `Clc1ccc(C(c2ccc(Cl)cc2)C(Cl)(Cl)Cl)cc1` [4,4'-DDT], `OC(c1ccc(Cl)cc1)(c1ccc(Cl)cc1)C(Cl)(Cl)Cl` [2,2,2-Trichloro-1,1-bis(4-chlorophenyl)ethanol] is lower in melting point: 110 °C for the first, 78.5 °C for the second.

Compared with `COc1ccc(C)cc1OC` [3,4-dimethoxytoluene], `COc1ccc(O)cc1OC` [3,4-dimethoxyphenol] is higher in melting point: 27 °C for the first, 83 °C for the second.

First: OB(O)c1cccc2ccccc12 [1-naphthaleneboronic acid]
Second: COc1ccccc1B(O)O [2-methoxybenzeneboronic acid]
The melting point of the first is higher: 207 °C for the first, 104 °C for the second.

First: CCCCCCC [N-heptane]
Second: C#CCCCCCCCC [Dec-1-yne]
The melting point of the first is lower: -91 °C for the first, -44 °C for the second.

Compared with `c1ccc(CCc2ccc(CCc3ccccc3)cc2)cc1` [1,4-bis(2-phenylethyl)benzene], `SC(c1ccccc1)(c1ccccc1)c1ccccc1` [triphenylmethyl mercaptan] is higher in melting point: 89 °C for the first, 106 °C for the second.

First: CCOC(=O)c1csc(C)n1 [ethyl 2-methyl-1,3-thiazole-4-carboxylate]
Second: CCCOC(C)=O [Propyl acetate]
The melting point of the first is higher: 57 °C for the first, -95 °C for the second.

Compared with `CS(=O)(=O)c1ccc(B(O)O)cc1` [4-(methylsulfonyl)benzeneboronic acid], `Cc1ccc(S(=O)(=O)N=S(C)(C)=O)cc1` [S,S-dimethyl-N-(p-toluenesulfonyl)sulfoximine] is lower in melting point: 200 °C for the first, 168 °C for the second.

Going from `Oc1cccc(I)c1` [3-iodophenol] to `Nc1ccc(I)cc1` [4-Iodoaniline], the melting point rises from 41 °C to 61 °C.

First: Cc1cc(B(O)O)sc1C=O [5-formyl-4-methylthiophene-2-boronic acid]
Second: Cc1cc(Cl)ccc1B(O)O [4-chloro-2-methylbenzeneboronic acid]
The melting point of the first is lower: 119 °C for the first, 194 °C for the second.

First: COC(=O)/C=CC(=O)OC [dimethyl maleate]
Second: COC(=O)c1ccc(C(=O)OC)cc1 [Dimethyl terephthalate]
The melting point of the first is lower: -19 °C for the first, 141 °C for the second.

First: COc1ccc(C(=O)O)cc1OCc1ccccc1 [3-benzyloxy-4-methoxybenzoic acid]
Second: O=C(O)c1ccc2cc(O)ccc2c1 [6-hydroxy-2-naphthoic acid]
The melting point of the first is lower: 180 °C for the first, 249 °C for the second.

Compared with `NC(=O)c1cccnc1` [Nicotinamide], `COc1cccc(C(N)=O)c1` [3-methoxybenzamide] is higher in melting point: 130 °C for the first, 133 °C for the second.

Going from `CCCOC(=O)C1=C(C)NC(C)=C(C(=O)OCCC)C1c1cccc(OC)c1O` to `CCCCOC(=O)c1ccc(N)cc1` [butyl 4-aminobenzoate], the melting point falls from 167 °C to 58 °C.

Going from `BrCBr` [dibromomethane] to `BrCC(Br)Br` [1,1,2-tribromoethane], the melting point rises from -53 °C to -29 °C.

First: O=C(O)/C(=C/c1ccc([N+](=O)[O-])cc1)c1ccc(F)cc1 [(E)-2-(4-Fluorophenyl)-3-(4-nitrophenyl)propenoic acid]
Second: O=C(O)c1ccc(-c2cccc([N+](=O)[O-])c2)cc1 [3'-nitrobiphenyl-4-carboxylic acid]
The melting point of the first is lower: 242 °C for the first, 314 °C for the second.

First: CC(C)(O)C(C)(C)O [pinacol, anhydrous]
Second: Cc1cccc(C(C)(C)C)c1 [3-tert-butyltoluene]
The melting point of the first is higher: 44 °C for the first, -41 °C for the second.

Compared with `O=C1c2ccccc2C(=O)c2ccccc21` [9,10-anthraquinone], `O=S(=O)(Nc1cccc(Cl)c1Cl)c1ccccc1` [2,3-dichloro-1-phenylsulfonamidobenzene] is lower in melting point: 285 °C for the first, 114 °C for the second.

Compared with `Brc1cscc1Br` [3,4-dibromothiophene], `[C-]#[N+]c1c(C)cccc1C` [2,6-dimethylphenyl isocyanide] is higher in melting point: 5 °C for the first, 74 °C for the second.

Compared with `Cc1ccnc2c1NC(=O)c1cccnc1N2C1CC1` [nevirapine], `O=C1CCC(N2C(=O)c3ccccc3C2=O)C(=O)N1` (configuration not stated) [Thalidomide] is higher in melting point: 248 °C for the first, 270 °C for the second.

First: C=C(C)C=O [methacrolein]
Second: CC(C)OC=O [isopropyl formate]
The melting point of the first is higher: -81 °C for the first, -93 °C for the second.

Going from `ClC1=C(Cl)[C@]2(Cl)C3C(Cl)C=CC3[C@@]1(Cl)C2(Cl)Cl` (some centres not stated) to `Clc1cc(Cl)c(-c2cc(Cl)c(Cl)cc2Cl)cc1Cl` [PCB-153], the melting point rises from 95.5 °C to 103 °C.

Compared with `Cc1cccc(C)c1O` [2,6-dimethylphenol], `Oc1cccc(O)c1O` [1,2,3-trihydroxybenzene] is higher in melting point: 46 °C for the first, 134 °C for the second.

First: c1cscn1 [thiazole]
Second: Cc1cncc(C)n1 [2,6-dimethylpyrazine]
The melting point of the first is lower: -33 °C for the first, 41 °C for the second.

Going from `C[Si](C)(C)OS(=O)(=O)O[Si](C)(C)C` [bis(trimethylsilyl) sulfate] to `CC(C)N(C=O)C(C)C` [N,N-diisopropylformamide], the melting point falls from 46 °C to 10 °C.

Going from `COc1ccc2c(=O)cc(-c3ccccc3)oc2c1` [7-methoxyflavone] to `O=[N+]([O-])c1ccc(Oc2ccccc2)cc1` [4-nitrophenyl phenyl ether], the melting point falls from 110 °C to 55 °C.

First: CC1(C(=O)OC2OC(CO)C(O)C(O)C2O)CCCC2(C)C3CCC4CC3(CCC12)CC4(CO)OC1OC(CO)C(O)C(O)C1O (configuration not stated)
Second: CC(=O)OC1CCC2C3CCC4CC(=C(C)C)CCC4(C)C3CCC12C (configuration not stated) [3-(1-methylethylidene)androstan-17-yl acetate]
The melting point of the first is higher: 198 °C for the first, 108 °C for the second.

Going from `O=P1(N(CCCl)CCCl)NCCCO1` (configuration not stated) [Cyclophosphamide] to `ClC1CCCC1` [chlorocyclopentane], the melting point falls from 43 °C to -94 °C.

Going from `CC(=O)Nc1ccc(Cl)cc1C` [4'-chloro-2'-methylacetanilide] to `O=Cc1ccc(Cl)cc1Cl` [2,4-dichlorobenzaldehyde], the melting point falls from 140 °C to 73 °C.

Compared with `CCCCCCCCCCCCBr` [1-bromododecane], `CCCCCCCCCCCC#N` [dodecanonitrile] is higher in melting point: -10 °C for the first, 4 °C for the second.

First: BrCC(Br)(Br)CBr [1,2,2,3-tetrabromopropane]
Second: CC(C)(C)OC(=O)N[C@@H](Cc1ccc(Br)cc1)C(=O)O [N-boc-4-bromo-L-phenylalanine]
The melting point of the first is lower: 11 °C for the first, 119 °C for the second.

Compared with `CC(=O)OC1CCC2(C)C(CCC3C2CCC2(C)C3CCC2(C)CCc2ccccc2)C1` (configuration not stated) [17-methyl-21-phenylpregnan-3-yl acetate], `COC(=O)C1C(c2ccccc2)C(C#N)=C(C(SC)SC)C1(O)c1ccccc1` (configuration not stated) is higher in melting point: 135 °C for the first, 165 °C for the second.

First: CCn1cc(C(=O)O)c(=O)c2cc(F)c(N3CCNC(C)C3)c(F)c21 (configuration not stated) [lomefloxacin]
Second: OB(O)c1cc(Cl)c(F)cc1F [5-chloro-2,4-difluorobenzeneboronic acid]
The melting point of the first is higher: 240 °C for the first, 220 °C for the second.

Compared with `O=C(CC(=O)c1ccccc1)c1ccccc1` [1,3-Diphenylpropane-1,3-dione], `CCCCNC(=O)C(c1cc(OC)cc(OC)c1)N(Cc1ccccc1)C(=O)C#Cc1ccccc1` (configuration not stated) [Ugi product 173G (UC)] is higher in melting point: 77 °C for the first, 138 °C for the second.

First: OCCCO [1,3-propanediol]
Second: O=C(O)CCC(=O)O [Succinic acid]
The melting point of the first is lower: -26 °C for the first, 186 °C for the second.

Compared with `COCCOC` [1,2-dimethoxyethane], `CC(=O)OCC1OC(C(N)=O)C(OC(C)=O)C(OC(C)=O)C1OC(C)=O` (configuration not stated) is higher in melting point: -69 °C for the first, 129 °C for the second.

Going from `Cc1ccccc1N1C(=O)c2cc(S(N)(=O)=O)c(Cl)cc2NC1C` (configuration not stated) [Metolazone] to `NS(=O)(=O)c1cc(C(=O)O)c(NCc2ccco2)cc1Cl` [Furosemide], the melting point falls from 256 °C to 206 °C.

Going from `Cc1ccc([N+](=O)[O-])cc1N` [2-Methyl-5-nitroaniline] to `O=[N+]([O-])c1cccc(N=C=S)c1` [3-nitrophenyl isothiocyanate], the melting point falls from 108 °C to 57 °C.

First: CCCC(C)C1(CC)C(=O)NC(=O)NC1=O (configuration not stated) [pentobarbital]
Second: CC(C)c1cccc(C(C)C)c1O [2,6-diisopropylphenol]
The melting point of the first is higher: 130 °C for the first, 18 °C for the second.

Compared with `Cc1c(Cl)c(Cl)c(Cl)c(Cl)c1Cl` [Pentachlorotoluene], `Cc1c(Cl)cccc1Cl` [2,6-dichlorotoluene] is lower in melting point: 225 °C for the first, 2 °C for the second.

First: C#CCCCCCCCCCCCCCCCCC [1-nonadecyne]
Second: CCCCCCCCCN [1-nonylamine]
The melting point of the first is higher: 33 °C for the first, -1 °C for the second.

Compared with `N#CCC(N)=O` [cyanoacetamide], `C[C@@H](O)[C@H](N)C(=O)O` [L-Threonine] is higher in melting point: 120 °C for the first, 256 °C for the second.

Going from `CC(C)(C)OC(=O)NCC(=O)N(Cc1ccco1)C(C(=O)NCc1ccccc1)c1ccccc1` (configuration not stated) [Ugi product 108C (UC)] to `O=C(c1ccc(F)cc1)c1ccccc1F` [2,4'-difluorobenzophenone], the melting point falls from 147 °C to 23 °C.

Compared with `Cc1ccc(-c2ccc(C)cc2)cc1` [4,4'-dimethylbiphenyl], `Cc1cc(-c2ccccc2)[nH]n1` [3-methyl-5-phenyl-1h-pyrazole] is higher in melting point: 121 °C for the first, 126 °C for the second.

Compared with `O=C(O)c1ccccc1O` [Salicylic acid], `C=C(C)c1ccccc1` [2-phenyl-1-propene] is lower in melting point: 161 °C for the first, -23 °C for the second.

Compared with `OB(O)c1cccc(Cl)c1` [3-chlorobenzeneboronic acid], `O=C(O)CSc1cccc2cccc(Cl)c12` [2-(8-chloro-1-naphthylthio)acetic acid] is lower in melting point: 183 °C for the first, 156 °C for the second.

Going from `N#Cc1c(Cl)cccc1Cl` [2,6-Dichlorobenzonitrile] to `Cc1cc(Cl)c(C)cc1Cl` [2,5-dichloro-p-xylene], the melting point falls from 144 °C to 69 °C.

First: NS(=O)(=O)c1ccc(F)c2nonc12 [7-fluorobenzofurazan-4-sulfonamide]
Second: O=C(CCCN1CCC(O)(c2ccc(Cl)cc2)CC1)c1ccc(F)cc1 [haloperidol]
The melting point of the first is lower: 144 °C for the first, 149 °C for the second.

First: ClCC1CO1 (configuration not stated) [epichlorohydrin]
Second: O=C(O)/C=C/c1ccco1 [3-(2-furyl)acrylic acid]
The melting point of the first is lower: -57.1 °C for the first, 142 °C for the second.
